Biological target: T1, PriSLX (Saccharolobus solfataricus, UniProt Q97Z83+Q97ZS7)
T1 construct: gene priS; heterotrimer co-expressed in E. coli Rosetta2(DE3) from pETDuet PriL/PriS and pRSFDuet PriX; no tag mentioned; PriL 307 and PriX 154 residues; with DNA primase large subunit PriL
T1 sequence (Q97Z83 1-330): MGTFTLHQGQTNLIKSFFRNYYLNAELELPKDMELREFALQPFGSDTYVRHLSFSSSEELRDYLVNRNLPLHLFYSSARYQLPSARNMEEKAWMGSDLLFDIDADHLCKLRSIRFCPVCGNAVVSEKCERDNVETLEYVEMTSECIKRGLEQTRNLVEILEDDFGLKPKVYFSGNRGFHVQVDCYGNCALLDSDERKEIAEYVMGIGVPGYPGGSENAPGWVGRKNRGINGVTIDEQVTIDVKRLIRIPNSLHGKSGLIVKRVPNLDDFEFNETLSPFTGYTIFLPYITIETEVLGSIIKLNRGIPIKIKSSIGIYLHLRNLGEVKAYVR
T1 sequence (Q97ZS7 1-154): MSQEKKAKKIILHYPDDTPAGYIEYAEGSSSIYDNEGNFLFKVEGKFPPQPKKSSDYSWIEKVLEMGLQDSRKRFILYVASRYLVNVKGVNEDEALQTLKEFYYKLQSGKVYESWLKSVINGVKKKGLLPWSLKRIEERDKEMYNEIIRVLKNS
T1 sequence (Q9UWW1 1-307 partner): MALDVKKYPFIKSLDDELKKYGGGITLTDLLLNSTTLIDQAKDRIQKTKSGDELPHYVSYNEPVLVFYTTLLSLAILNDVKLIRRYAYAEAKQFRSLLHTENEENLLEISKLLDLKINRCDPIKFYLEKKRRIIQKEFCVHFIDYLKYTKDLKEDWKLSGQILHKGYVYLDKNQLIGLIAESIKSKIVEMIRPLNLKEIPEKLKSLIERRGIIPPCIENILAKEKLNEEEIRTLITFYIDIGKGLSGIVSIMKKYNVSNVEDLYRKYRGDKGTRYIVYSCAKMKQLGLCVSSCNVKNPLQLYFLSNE
Test: X-ray crystal structure, […] Å
Assay type: binding
Settings: two molecules bound: PriS active site (elongation site) and PriX initiation site at the PriX-PriS interface; MnCl2

Structure (SMILES): Nc1ncnc2c1ncn2[C@@H]1O[C@H](COP(=O)(O)CP(=O)(O)OP(=O)(O)O)[C@@H](O)[C@H]1O [AMPCPP]
- X-ray crystal structure, 2.9 Å: The first AMPCPP was bound in the active site of PriS

From paper PMC5700102, “Primer synthesis by a eukaryotic-like archaeal primase is independent of its Fe-S cluster” (Nature Communications, 2017)
